A short description of assay [1]: Inhibition of ATG5-ATG16L1 (unknown origin) protein protein interaction expressed in Escherichia coli BL21 (DE3) by HTRF method. Further details: species or system Homo sapiens; call rule not given here.
Assay [2] in a line: Inhibition of ATG5-TECAIR (unknown origin) protein protein interaction expressed in Escherichia coli BL21 (DE3) by HTRF method. Also noted: species or system Homo sapiens. A general note: In TR-FRET formats the signal depends on donor and acceptor labels being close together.
In assay [3] the test system is COS-7. Nature of the assay: Inhibition of autophagy in African green monkey COS-7 cells at 20 uM by flow cytometry analysis relative to control. The assay is classed as functional. To be noted: Chlorocebus aethiops.

SMILES strings stand for the structures. Some results are limits rather than exact numbers.

The term IC50 denotes the concentration that gives 50% inhibition. One may read the inhibition as the drop in the measured response relative to a control, in per cent.

For the molecule `O=C1/C(=C/c2ccc(-c3ccc([N+](=O)[O-])cc3)o2)C=C(c2ccccc2)N1Cc1ccccc1`, the IC50 result in assay [1] and in assay [2] was “Not Active” each time. In assay [3], this molecule registered an inhibition at 20 µM of 78.7%.

Regarding `COc1ccc(-c2ccc(/C=C3\C=C(c4ccccc4)N(c4ccc(C(=O)O)cc4)C3=O)o2)cc1`, the IC50 in assay [1] (read-out: IC50) is 25 µM; in assay [2] (read-out: IC50), 16 µM. For the same molecule, in assay [3], the inhibition at 20 µM was determined as 96.6%.

Turning to `COC(=O)CCN1C(=O)/C(=C/c2ccc(-c3ccc([N+](=O)[O-])cc3)o2)C=C1c1ccccc1`, the IC50 result in assay [1] and in assay [2] was “Not Active” throughout. For the same molecule, testing at 20 µM in assay [3] gave an inhibition of 77.1%.

Turning to `O=C(O)c1ccc(N2C(=O)/C(=C/c3ccc(-c4cc(F)c(F)c(F)c4)s3)C=C2c2ccccc2)cc1`, the IC50 was found to be 12 µM in assay [1] (read-out: IC50) and 22 µM in assay [2] (read-out: IC50). Besides, at 20 µM the inhibition in assay [3] was 97.6%.

For the molecule `O=C(O)c1ccc(CN2C(=O)/C(=C/c3ccc(-c4ccccc4)o3)C=C2c2ccccc2)cc1`, the IC50 in assay [1] (read-out: IC50) and in assay [2] (read-out: IC50) was above 33 µM in each case. Testing at 20 µM in assay [3] gave an inhibition of 20.6%.

For the molecule `O=C(O)c1ccc(N2C(=O)/C(=C/c3ccc(-c4ccc(Br)cc4)o3)C=C2c2ccccc2)cc1`, the values for the IC50 in assay [1] (read-out: IC50) and in assay [2] (read-out: IC50) were above 33 µM and 19 µM, respectively. The molecule also returned an inhibition at 20 µM in assay [3] of 97.3%.

Regarding `COC(=O)c1ccc(CN2C(=O)/C(=C/c3ccc(-c4ccc([N+](=O)[O-])cc4)o3)C=C2c2ccccc2)cc1`, the IC50 result in assay [1] and in assay [2] was “Not Active” each time. In assay [3], this molecule had an inhibition at 20 µM of 59.8%.

Regarding `O=C(O)CCN1C(=O)/C(=C/c2ccc(-c3ccc([N+](=O)[O-])cc3)o2)C=C1c1ccccc1`, the IC50 is above 100 µM in assay [1] (read-out: IC50) and 17.2 µM in assay [2] (read-out: IC50). Moreover, testing at 20 µM in assay [3] gave an inhibition of 21.4%.

As to `O=C(O)c1ccc(N2C(=O)/C(=C/c3ccc(-c4cccnc4)s3)C=C2c2ccccc2)cc1`, the half-maximal inhibitory concentration (IC50) result in assay [1] was “Not Active”; in assay [2] (read-out: IC50), above 33 µM. Also, the inhibition at 20 µM in assay [3] amounted to 97.3%.

As to `O=C(O)CCCCN1C(=O)/C(=C/c2ccc(-c3ccc([N+](=O)[O-])cc3)o2)C=C1c1ccccc1`, the IC50 in assay [1] (read-out: IC50) is above 33 µM; in assay [2] (read-out: IC50), 19.2 µM. This molecule also showed an inhibition at 20 µM in assay [3] of 14.6%.

Turning to `CC(=O)c1ccc(-c2ccc(/C=C3\C=C(c4ccccc4)N(Cc4ccc(C(=O)O)cc4)C3=O)o2)cc1`, the IC50 in assay [1] (read-out: IC50) was determined as 26.9 µM; in assay [2] (read-out: IC50), 16.3 µM. The same molecule gave an inhibition at 20 µM in assay [3] of 14.6%.

For `O=C(O)c1cccc(CN2C(=O)/C(=C/c3ccc(-c4ccc([N+](=O)[O-])cc4)o3)C=C2c2ccccc2)c1`, the results for the 50% inhibitory concentration (IC50) in assay [1] (read-out: IC50) and in assay [2] (read-out: IC50) were above 33 µM and 21.3 µM, respectively. The same molecule gave an inhibition at 20 µM in assay [3] of 8.1%.

On to `O=C1/C(=C/c2ccc(-c3ccc([N+](=O)[O-])cc3)o2)C=C(c2ccccc2)N1Cc1ccc(C(F)(F)F)cc1`, for which the IC50 result in assay [1] and in assay [2] was “Not Active” in each case. Besides, 20 µM produced 87.7% inhibition in assay [3].

Consider `O=C(O)CN1C(=O)/C(=C/c2ccc(-c3ccc([N+](=O)[O-])cc3)o2)C=C1c1ccccc1`, for which the half-maximal inhibitory concentration (IC50) entry in assay [1] was “Not Active”; in assay [2] (read-out: IC50) it was 31.2 µM. In addition, the inhibition at 20 µM in assay [3] was determined as 3.29%.

Turning to `O=C(O)c1ccc(N2C(=O)/C(=C/c3ccc(-c4ccc([N+](=O)[O-])cc4)s3)C=C2c2ccccc2)cc1`, the IC50 amounted to 18 µM in assay [1] (read-out: IC50) and 30 µM in assay [2] (read-out: IC50). The inhibition at 20 µM in assay [3] was found to be 90.9%.

For `CC(=O)Nc1cccc(-c2ccc(/C=C3\C=C(c4ccccc4)N(Cc4ccc(C(=O)O)cc4)C3=O)o2)c1`, the IC50 entry in assay [1] and in assay [2] was “Not Active” throughout. This molecule yielded an inhibition at 20 µM in assay [3] of 20%.

For the molecule `O=C(O)CCCN1C(=O)/C(=C/c2ccc(-c3ccc([N+](=O)[O-])cc3)o2)C=C1c1ccccc1`, the IC50 result in assay [1] is “Not Active”; in assay [2] (read-out: IC50), 20.8 µM. The molecule also returned an inhibition at 20 µM in assay [3] of 5.3%.

As to `O=C(O)c1ccc(N2C(=O)/C(=C/c3ccc(-c4ccc5nonc5c4)o3)C=C2c2ccccc2)cc1`, the half-inhibitory concentration (IC50) in assay [1] (read-out: IC50) came to 17 µM; in assay [2] (read-out: IC50) it was 12 µM. This molecule also had an inhibition at 20 µM in assay [3] of 94.7%.

For the molecule `O=C(O)c1ccc(CN2C(=O)/C(=C/c3ccc(-c4ccc([N+](=O)[O-])cc4)o3)C=C2c2ccccc2)cc1`, the values for the IC50 in assay [1] (read-out: IC50) and in assay [2] (read-out: IC50) were 2.29 µM and 3.68 µM, respectively. Further, in assay [3], the inhibition at 20 µM stood at 5.88%.

Take `N#Cc1ccc(-c2ccc(/C=C3\C=C(c4ccccc4)N(c4ccc(C(=O)O)cc4)C3=O)s2)cc1`: the IC50 result in assay [1] and in assay [2] was “Not Active” in each case. Besides, testing at 20 µM in assay [3] gave an inhibition of 93.9%.

For the molecule `NC(=O)c1ccc(-c2ccc(/C=C3\C=C(c4ccccc4)N(Cc4ccc(C(=O)O)cc4)C3=O)o2)cc1`, the IC50 in assay [1] (read-out: IC50) and in assay [2] (read-out: IC50) was above 33 µM throughout. Further, at 20 µM the inhibition in assay [3] was 38.9%.

For the molecule `NC(=O)c1cccc(-c2ccc(/C=C3\C=C(c4ccccc4)N(Cc4ccc(C(=O)O)cc4)C3=O)o2)c1`, the IC50 entry is “Not Active” in assay [1] and above 33 µM in assay [2] (read-out: IC50). The same molecule displayed an inhibition at 20 µM in assay [3] of 8.3%.

For the molecule `O=C1/C(=C/c2ccc(-c3ccc([N+](=O)[O-])cc3)o2)C=C(c2ccccc2)N1Cc1ccccc1Br`, at 20 µM the inhibition in assay [3] was 82.5%.

For `O=C(O)c1ccc(CN2C(=O)/C(=C/c3ccc(-c4cccc([N+](=O)[O-])c4)o3)C=C2c2ccccc2)cc1`, the IC50 in assay [1] (read-out: IC50) was found to be 6.14 µM; in assay [2] (read-out: IC50) it was 10.5 µM. The molecule also returned an inhibition at 20 µM in assay [3] of 36%.

As to `COC(=O)c1cccc(CN2C(=O)/C(=C/c3ccc(-c4ccc([N+](=O)[O-])cc4)o3)C=C2c2ccccc2)c1`, in assay [3], the inhibition at 20 µM was found to be 78.4%.

Turning to `COC(=O)CCCN1C(=O)/C(=C/c2ccc(-c3ccc([N+](=O)[O-])cc3)o2)C=C1c1ccccc1`, the IC50 result in assay [1] and in assay [2] was “Not Active” throughout. In assay [3], this molecule gave an inhibition at 20 µM of 74.5%.

In the case of `O=C(O)c1ccc(N2C(=O)/C(=C/c3ccc(-c4ccc(Cl)cc4)o3)C=C2c2ccccc2)cc1`, the IC50 in assay [1] (read-out: IC50) was above 33 µM; in assay [2] (read-out: IC50) it was 17 µM. Further, in assay [3], the inhibition at 20 µM came to 98.2%.

`COC(=O)c1ccc(N2C(=O)/C(=C/c3ccc(-c4ccc([N+](=O)[O-])cc4)o3)C=C2c2ccccc2)cc1`: the half-maximal inhibitory concentration (IC50) result in assay [1] and in assay [2] was “Not Active” in each case. This molecule also yielded an inhibition at 20 µM in assay [3] of 98.9%.

With `CS(=O)(=O)c1ccc(-c2ccc(/C=C3\C=C(c4ccccc4)N(Cc4ccc(C(=O)O)cc4)C3=O)o2)cc1`, the IC50 result in assay [1] is “Not Active”; in assay [2] (read-out: IC50), above 33 µM. This molecule came in with an inhibition at 20 µM in assay [3] of 53.7%.

Consider `O=C(O)c1ccc(N2C(=O)/C(=C/c3ccc(-c4cncnc4)s3)C=C2c2ccccc2)cc1`, for which the half-inhibitory concentration (IC50) in assay [1] (read-out: IC50) and in assay [2] (read-out: IC50) was above 11 µM in each case. The molecule also yielded an inhibition at 20 µM in assay [3] of 95.6%.

Take `O=C(O)c1ccc(N2C(=O)/C(=C/c3ccc(-c4ccc(O)cc4)o3)C=C2c2ccccc2)cc1`: the IC50 in assay [1] (read-out: IC50) and in assay [2] (read-out: IC50) was above 33 µM in each case. Further, the inhibition at 20 µM in assay [3] turned out to be 97.1%.

As to `O=C(O)c1ccc(N2C(=O)/C(=C/c3ccc(-c4ccc(O)cc4)s3)C=C2c2ccccc2)cc1`, the IC50 in assay [1] (read-out: IC50) came out at 12 µM; in assay [2] (read-out: IC50), 10 µM. The same molecule yielded an inhibition at 20 µM in assay [3] of 98.8%.

For the molecule `CC(=O)Nc1ccc(-c2ccc(/C=C3\C=C(c4ccccc4)N(Cc4ccc(C(=O)O)cc4)C3=O)o2)cc1`, the IC50 in assay [1] (read-out: IC50) is 12.8 µM; in assay [2] (read-out: IC50), 12 µM. Further, in assay [3], the inhibition at 20 µM was 5.02%.

Source of the values: ChEMBL document CHEMBL5380800, “Discovery of Small-Molecule Autophagy Inhibitors by Disrupting the Protein-Protein Interactions Involving Autophagy-Related 5” (J Med Chem, 2023).
